Test [1] deals with Cyclin-dependent kinase 4/cyclin D1 (Homo sapiens, UniProt P11802). The experiment in a line: Inhibition of Cyclin-dependent kinase 4-cyclin D1. The class given is protein-complex assay.
In test [2] the target is Cyclin-dependent kinase 2/cyclin E (Homo sapiens, UniProt P24941).
Description: Inhibition of Cyclin-dependent kinase 2-cyclin E
Test [3] deals with Cyclin-dependent kinase 1/cyclin B (Homo sapiens, UniProt P06493). The experiment in a line: Inhibition of Cyclin-dependent kinase 1-cyclin B. The class given is protein-complex assay.
A further test deals with HCT-116. In words: Inhibition of human colon carcinoma cell (HCT116) proliferation. It counts as functional, cell-based.

Each structure is given as a SMILES string.

Sequence of Cyclin-dependent kinase 4/cyclin D1 (P11802 whole entry): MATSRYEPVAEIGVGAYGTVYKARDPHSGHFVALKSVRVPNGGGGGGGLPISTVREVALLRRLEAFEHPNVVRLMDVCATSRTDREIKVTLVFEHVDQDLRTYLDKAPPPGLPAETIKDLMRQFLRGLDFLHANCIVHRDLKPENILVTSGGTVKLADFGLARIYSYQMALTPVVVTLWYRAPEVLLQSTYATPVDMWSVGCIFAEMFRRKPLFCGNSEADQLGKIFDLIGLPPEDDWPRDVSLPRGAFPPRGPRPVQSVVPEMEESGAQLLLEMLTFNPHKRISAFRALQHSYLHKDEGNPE
Sequence of Cyclin-dependent kinase 4/cyclin D1 (P24385 whole entry, further chain): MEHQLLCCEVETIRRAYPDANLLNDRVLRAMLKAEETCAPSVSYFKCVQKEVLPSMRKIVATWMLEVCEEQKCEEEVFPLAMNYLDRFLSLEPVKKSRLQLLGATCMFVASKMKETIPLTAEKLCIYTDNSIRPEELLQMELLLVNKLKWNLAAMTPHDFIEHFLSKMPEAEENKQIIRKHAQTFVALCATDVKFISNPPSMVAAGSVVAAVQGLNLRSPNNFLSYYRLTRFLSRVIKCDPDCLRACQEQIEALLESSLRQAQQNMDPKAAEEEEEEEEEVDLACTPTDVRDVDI

`CCCc1nc2c(c(SC)nn2-c2c(Cl)cc(Cl)cc2Cl)c(=O)[nH]1` returned an IC50 in test [1] of 9.1 µM. In the case of `CSCc1nc2c(c(SC)nn2-c2c(Cl)cc(Cl)cc2Cl)c(=O)[nH]1`, the IC50 in test [1] was 15 µM; in test [2] it was 0.31 µM. In the case of `CSc1nn(-c2c(Cl)cc(Cl)cc2Cl)c2nc(Cc3cccs3)[nH]c(=O)c12`, in test [1], the IC50 turned out to be 20 µM. As for `CCc1nn(-c2c(Cl)cc(Cl)cc2Cl)c2nc(Cc3cccnc3)[nH]c(=O)c12`, the IC50 is 0.22 µM in test [3], 1.3 µM in test [1], 0.01 µM in test [2] and 0.3 µM in the test on HCT-116. Regarding `CSc1nn(-c2c(C)cc(C)cc2C)c2nc(C)[nH]c(=O)c12`, in test [1], the IC50 was 37 µM.

On to `Cc1nc2c(c(CCO)nn2-c2c(Cl)cc(Cl)cc2Cl)c(=O)[nH]1`, for which the half-maximal inhibitory concentration (IC50) in test [1] is greater than 140 µM.

With `CCc1nn(-c2c(Cl)cc(Cl)cc2Cl)c2nc(CCc3cnc[nH]3)[nH]c(=O)c12`, the IC50 amounted to 3.6 µM in test [1] and 0.62 µM in test [2].

`CSc1nn(-c2ccccc2)c2nc(C)[nH]c(=O)c12`: the IC50 in test [1] was greater than 180 µM. Turning to `CCc1nc2c(c(CC)nn2-c2c(Cl)cc(Cl)cc2Cl)c(=O)[nH]1`, the IC50 in test [1] was determined as 0.94 µM; in test [2] it was 0.09 µM. Compound `CSc1nn(-c2cc(Cl)ccc2Cl)c2nc(C)[nH]c(=O)c12` returned an IC50 in test [1] of 23 µM. The compound `CSc1nn(-c2ccc(C(C)C)cc2)c2nc(C)[nH]c(=O)c12` registered an IC50 in test [1] greater than 160 µM. In test [1], `CSc1nn(-c2ccccn2)c2nc(C)[nH]c(=O)c12` displayed an IC50 greater than 180 µM. Turning to `CCc1nn(-c2c(Cl)cc(Cl)cc2Cl)c2nc(CC(C)C)[nH]c(=O)c12`, the IC50 is greater than 6.3 µM in test [1] and 0.11 µM in test [2]. For the compound `CSc1nn(-c2c(Cl)cc(Cl)cc2Cl)c2nc(CF)[nH]c(=O)c12`, the IC50 amounted to 44 µM in test [1] and 1.6 µM in test [2]. `CCc1nn(-c2c(Cl)cc(Cl)cc2Cl)c2nc(Cc3ccccc3O)[nH]c(=O)c12`: the half-maximal inhibitory concentration (IC50) was greater than 11 µM in test [1], 0.12 µM in test [2] and 5.5 µM in the test on HCT-116. Take `CCOC(=O)Cc1cccc(Cc2nc3c(c(CC)nn3-c3c(Cl)cc(Cl)cc3Cl)c(=O)[nH]2)c1`: the figures for the IC50 in test [1] and in test [2] were greater than 1.9 µM and 0.15 µM, respectively. `CSc1nn(-c2c(Cl)cc(Cl)cc2Cl)c2nc(C(C)O)[nH]c(=O)c12` (stereo not given): in test [1], the IC50 was found to be 27 µM.

Consider `CCc1nn(-c2c(Cl)cc(Cl)cc2Cl)c2nc(Cc3ccc(O)c(OC)c3)[nH]c(=O)c12`, for which the IC50 in test [3] worked out at 0.86 µM; in test [1] it was 6.6 µM; in test [2] it was 0.07 µM; in the test with HCT-116 it was 0.32 µM. The like results for `CCc1nn(-c2c(Cl)cc(Cl)cc2Cl)c2nc(Cc3cccc(N)c3C)[nH]c(=O)c12` were, in that order, greater than 0.27 µM, greater than 2.2 µM, 0.01 µM and 0.19 µM. In test [1], `CCc1nn(-c2c(Cl)cc(Cl)cc2Cl)c2nc(C)nc(N)c12` showed an IC50 greater than 140 µM.

Compound `Cc1nc2c(c(C(F)(F)F)nn2-c2c(Cl)cc(Cl)cc2Cl)c(=O)[nH]1` gave an IC50 in test [1] of 3.1 µM. Still for that read-out and setting: for `CSc1nn(-c2ccc(C)cc2C)c2nc(C)[nH]c(=O)c12` the value was 48 µM; for `CSc1nn(-c2cccc(Cl)c2)c2nc(C)[nH]c(=O)c12`, greater than 160 µM; for `CSc1nn(-c2cc(C)ccc2C)c2nc(C)[nH]c(=O)c12`, 25 µM.

Take `CCc1nn(-c2c(Cl)cc(Cl)cc2Cl)c2nc(Cc3cccc(NS(C)(=O)=O)c3)[nH]c(=O)c12`: the IC50 in test [1] amounted to 0.16 µM; in test [2], 0.26 µM; with HCT-116, 0.47 µM. In the case of `COC(=O)c1nc2c(c(SC)nn2-c2c(Cl)cc(Cl)cc2Cl)c(=O)[nH]1`, the IC50 in test [1] stood at 240 µM. For `CCc1nn(-c2c(Cl)cc(Cl)cc2Cl)c2nc(Cc3ccc(Br)cc3)[nH]c(=O)c12`, the IC50 is greater than 1.2 µM in test [1], 0.05 µM in test [2] and 2.3 µM in the test on HCT-116. With `CSc1nn(-c2c(Cl)cc(Cl)cc2Cl)c2nc(Cc3ccccc3)[nH]c(=O)c12`, the figures for the IC50 in test [1] and in test [2] were 11 µM and 0.44 µM, respectively. In test [1], `CSc1nn(-c2cc(C(F)(F)F)ccc2Cl)c2nc(C)[nH]c(=O)c12` showed an IC50 of 15 µM. `CSc1nn(-c2c(Cl)cc(Cl)cc2Cl)c2nc(CCCCCO)[nH]c(=O)c12`: the IC50 was found to be 10 µM in test [1] and 0.42 µM in test [2]. For `CCc1nn(-c2c(Cl)cc(Cl)cc2Cl)c2nc(Cc3ccc(C)c(OC)c3)[nH]c(=O)c12`, the values for the IC50 (in test [1]; in test [2]; in the test with HCT-116) were 2.1 µM, 0.11 µM and 9.5 µM, respectively. For the compound `C=Cc1nc2c(c(CC)nn2-c2c(Cl)cc(Cl)cc2Cl)c(=O)[nH]1`, the IC50 was determined as 2.9 µM in test [1] and 0.31 µM in test [2]. Take `CCc1nn(-c2c(Cl)cc(Cl)cc2Cl)c2nc(Cc3ccc(O)c(O)c3)[nH]c(=O)c12`: the results for the IC50 (in test [3]; in test [1]; with HCT-116) were 0.24 µM, 0.04 µM and 0.72 µM, respectively.

Consider `CCc1nn(-c2c(Cl)cc(Cl)cc2Cl)c2nc(CCCCO)[nH]c(=O)c12`, for which the IC50 in test [1] turned out to be 2.4 µM; in test [2], 0.25 µM. For the compound `COc1ccccc1-n1nc(SC)c2c(=O)[nH]c(C)nc21`, in test [1], the IC50 was greater than 83 µM.

Take `CCc1nn(-c2c(Cl)cc(Cl)cc2Cl)c2c1S(=O)(=O)NC(C)=N2`: the results for the IC50 in test [1] and in test [2] were greater than 51 µM and greater than 13 µM, respectively. Taken in the same sequence, the figures for `CCc1nn(-c2c(Cl)cc(Cl)cc2Cl)c2nc(C)[nH]c(=O)c12` were 1.1 µM and 0.14 µM. As to `CSc1nn(-c2ccc(Cl)cc2C)c2nc(C)[nH]c(=O)c12`, the midpoint of inhibition in test [1], the IC50, lay at 74 µM. As for `CCc1nn(-c2c(Cl)cc(Cl)cc2Cl)c2nc(Cc3ccccn3)[nH]c(=O)c12`, the IC50 is 9.7 µM in test [1], 0.23 µM in test [2] and 3.7 µM with HCT-116.

Compound `CSc1nn(-c2ccccc2Cl)c2nc(C)[nH]c(=O)c12` registered an IC50 in test [1] of 19 µM. Same read-out and setting: under `CSc1nn(-c2ccc(Cl)cc2)c2nc(C)[nH]c(=O)c12` stands greater than 160 µM. As to `CSc1nn(-c2c(Cl)cc(Cl)cc2Cl)c2nc(CCCO)[nH]c(=O)c12`, the IC50 in test [1] was determined as 13 µM; in test [2] it was 0.76 µM. As for `CCCCn1nc(SC)c2c(=O)[nH]c(C)nc21`, the IC50 in test [1] was greater than 200 µM.

Consider `CSc1nn(Cc2ccccc2)c2nc(C)[nH]c(=O)c12`, for which the IC50 in test [1] was greater than 150 µM. `CCc1nn(-c2c(Cl)cc(Cl)cc2Cl)c2nc(Cc3ccccc3OC)[nH]c(=O)c12`: the IC50 in test [1] was greater than 22 µM; in test [2], 0.1 µM; in the test on HCT-116, 3.4 µM. Consider `Cc1nc2c(c(CO)nn2-c2c(Cl)cc(Cl)cc2Cl)c(=O)[nH]1`, for which the IC50 in test [1] is 7 µM.

`CCCc1nn(-c2c(Cl)cc(Cl)cc2Cl)c2nc(C)[nH]c(=O)c12` gave an IC50 in test [1] of 5.7 µM. On the same count and under the same terms, for `CSc1nn(-c2c(Cl)cc(Cl)cc2Cl)c2nc(CN(C)C(=O)OC(C)(C)C)[nH]c(=O)c12` the value was greater than 50 µM. Regarding `CCc1nn(-c2c(Cl)cc(Cl)cc2Cl)c2nc(Cc3cc(O)cc(O)c3)[nH]c(=O)c12`, the IC50 was found to be 0.05 µM in test [1], 0.02 µM in test [2] and 0.3 µM in the test with HCT-116. In test [1], `CSc1nn(-c2c(C)cc(Cl)cc2Cl)c2nc(C)[nH]c(=O)c12` had an IC50 of 11 µM. The same measure, in the same setting: for `Cc1nc2c(c(C)nn2-c2c(Cl)cc(Cl)cc2Cl)c(=O)[nH]1` the value was 3.5 µM. On the same count and under the same terms, for `Cc1nc2c(c(-c3ccccc3)nn2-c2c(Cl)cc(Cl)cc2Cl)c(=O)[nH]1` the value was greater than 120 µM; for `CNCc1nc(O)c2c(SC)nn(-c3c(Cl)cc(Cl)cc3Cl)c2n1`, greater than 57 µM. Still for that read-out and setting: for `CSc1nn(-c2c(Cl)cc(Cl)cc2C(F)(F)F)c2nc(C)[nH]c(=O)c12` the value was 29 µM. On to `CSc1nn(-c2c(Cl)cc(Cl)cc2Cl)c2nc(C3CC3)[nH]c(=O)c12`, for which the IC50 in test [1] is 4.3 µM; in test [2] it was 0.4 µM. In test [1], `CSc1nn(-c2c(Cl)cc(Cl)cc2Cl)c2nc(-c3ccco3)[nH]c(=O)c12` yielded an IC50 of 36 µM. On the same count and under the same terms, under `CSc1nn(-c2c(Cl)cc(C(F)(F)F)cc2Cl)c2nc(C)[nH]c(=O)c12` stands 8 µM; under `CCc1nn(-c2c(Cl)cc(Cl)cc2Cl)c2nc(CCSC)[nH]c(=O)c12`, 6.5 µM. On the same count and under the same terms, for `Cc1nc2c(c(C#N)nn2-c2c(Cl)cc(Cl)cc2Cl)c(=O)[nH]1` the value was greater than 28 µM; for `CSc1nn(-c2ccc(Cl)cc2Cl)c2nc(C)[nH]c(=O)c12`, 37 µM. Regarding `CSc1nn(-c2c(Cl)cc(Cl)cc2Cl)c2nc[nH]c(=O)c12`, the IC50 in test [1] was determined as 95 µM; in test [2] it was 2.7 µM.

For the compound `CSc1nn(-c2c(Cl)cc(Cl)cc2Cl)c2nc(C(F)(F)F)[nH]c(=O)c12`, the IC50 in test [1] was greater than 116 µM. Still for that read-out and setting: for `CCCCc1nn(-c2c(Cl)cc(Cl)cc2Cl)c2nc(C)[nH]c(=O)c12` the value was greater than 6.5 µM. Turning to `CNCCc1nc2c(c(SC)nn2-c2c(Cl)cc(Cl)cc2Cl)c(=O)[nH]1`, the IC50 is 28 µM in test [1] and 6.6 µM in test [2]. Turning to `CCc1nn(-c2c(Cl)cc(Cl)cc2Cl)c2nc(CCc3ccccc3)[nH]c(=O)c12`, the IC50 stood at 7.1 µM in test [1] and 1.8 µM in test [2]. For the compound `CSc1nn(-c2c(Cl)cc(Cl)cc2Cl)c2nc(CCN(C)C(=O)OC(C)(C)C)[nH]c(=O)c12`, the IC50 in test [1] was greater than 48 µM; in test [2] it was 19 µM. Consider `CSc1nn(-c2c(Cl)cccc2Cl)c2nc(C)[nH]c(=O)c12`, for which the IC50 in test [1] was found to be 5.3 µM. Same read-out and setting: under `CSc1nn(CCO)c2nc(C)[nH]c(=O)c12` stands greater than 210 µM. On the same count and under the same terms, for `Cc1nc2c(cnn2-c2c(Cl)cc(Cl)cc2Cl)c(=O)[nH]1` the value was 12 µM. Still for that read-out and setting: for `CSc1nn(C(C)(C)C)c2nc(C)[nH]c(=O)c12` the value was greater than 100 µM. For `CCc1nn(-c2c(Cl)cc(Cl)cc2Cl)c2nc(C)n(C)c(=O)c12`, the IC50 in test [1] and in test [2] was greater than 27 µM each time. In test [1], `CSc1nn(-c2cccc(Cl)c2Cl)c2nc(C)[nH]c(=O)c12` came in with an IC50 of 50 µM.

In test [1], `Cc1nc2c(c(Cc3ccccc3)nn2-c2c(Cl)cc(Cl)cc2Cl)c(=O)[nH]1` displayed an IC50 greater than 48 µM. The same measure, in the same setting: for `CSc1nn(-c2c(Cl)cc(Cl)cc2Cl)c2nc(C(C)C)[nH]c(=O)c12` the value was 10 µM. For the compound `CCc1nn(-c2c(Cl)cc(Cl)cc2Cl)c2nc(-c3ccc(OC)c(OC)c3)[nH]c(=O)c12`, the values for the IC50 in test [1] and in test [2] were greater than 21 µM and 0.58 µM, respectively.

One may read the IC50 as the point on the concentration scale where inhibition reaches its midpoint. The low end stands for greater potency, the high end for weaker potency.

For the origin of these results see ChEMBL document CHEMBL1138844, “Synthesis and biological evaluation of 1-aryl-4,5-dihydro-1H-pyrazolo[3,4-d]pyrimidin-4-one inhibitors of cyclin-dependent kinases” (J Med Chem, 2004).
